In paper PMC3423427, “Design and Synthesis of Potent N-Acylethanolamine-hydrolyzing Acid Amidase (NAAA) Inhibitor as Anti-Inflammatory Compounds” (PLoS ONE, 2012):
Like-named read-outs stand apart in the source and are kept apart here.

Experiments:
[1] = molecular target: T1, rat NAAA (Rattus norvegicus, UniProt Q5KTC7); assay: NAAA enzymatic assay (recombinant rNAAA protein, LC/MS); type: biochemical; conditions: IC50 ± S.E.M., triplicate; 25 µM heptadecenoylethanolamide, pH 5.0;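 further: reaction product measured by LC/MS using positive APCI ionization with MRM monitoring, quantified from chromatographic peak areas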
T1 construct: made in house; host or cells: HEK293 cells stably overexpressing rat NAAA (HEK293-rNAAA), a gift from D. Piomelli; crude 800 x g supernatant of sonicated cells
T1 sequence (Q5KTC7 34-362): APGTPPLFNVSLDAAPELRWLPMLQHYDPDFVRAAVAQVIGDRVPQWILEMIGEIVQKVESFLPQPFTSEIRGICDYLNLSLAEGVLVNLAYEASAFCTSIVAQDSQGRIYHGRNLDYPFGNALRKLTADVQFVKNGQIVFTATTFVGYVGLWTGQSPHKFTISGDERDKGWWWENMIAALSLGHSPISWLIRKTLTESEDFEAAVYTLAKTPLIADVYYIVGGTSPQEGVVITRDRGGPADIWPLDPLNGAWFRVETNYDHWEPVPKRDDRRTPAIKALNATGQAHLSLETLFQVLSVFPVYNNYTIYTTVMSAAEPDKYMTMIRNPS
Experimental: HEK293-rNAAA or HEK293-rFAAH cells were harvested, washed with PBS, sonicated in 20 mM Tris-HCl (pH 7.5) containing 0.32 M sucrose, and centrifuged at 800 × g for 15 min at 4°C. The supernatants were collected and protein concentrations were measured by BCA protein assay kit (Pierce, Shanghai, China). […] The reactions were terminated by adding 0.2 mL methanol containing 1 nmol heptadecanoic acid and analyzed in LC/MS.
We use an Agilent 1200-LC system coupled to a 3200Q TRAP-MS detector equipped with an ESI interface (Agilent Technologies, Shanghai, China). […] The column temperature was set at 40°C. […] Mass spectrometer (MS) detection was ionized by positive-ion atmospheric pressure chemical ionization mode (APCI^+) and monitored in MRM mode. […] Quantifications were calculated at chromatographic peak areas by using Analyst® version 1.4.1. software (Applied Biosystems).

[2] = molecular target: T2, monoacylglycerol lipase (MGL) (Homo sapiens, UniProt Q99685); assay: MGL activity assay (Figure S1); type: biochemical; conditions: 100 µM (Figure S1)
T2 sequence (Q99685 1-303): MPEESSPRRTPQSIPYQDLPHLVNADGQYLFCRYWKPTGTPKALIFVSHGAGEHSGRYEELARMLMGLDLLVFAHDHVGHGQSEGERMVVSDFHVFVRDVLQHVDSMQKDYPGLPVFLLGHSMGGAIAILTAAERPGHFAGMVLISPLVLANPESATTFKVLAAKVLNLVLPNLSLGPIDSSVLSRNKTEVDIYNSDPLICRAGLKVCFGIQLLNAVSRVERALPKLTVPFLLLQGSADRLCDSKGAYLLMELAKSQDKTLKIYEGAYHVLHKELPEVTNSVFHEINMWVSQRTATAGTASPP
Experimental: (§1) Supplementary file pone.0043023.s001.pdf: Figure S1 Effect of vehicle (open bar) and compound 16 (100 µM, closed bars) on the activity of NAAA, FAAH, MGL, and ASAH. ***, p<0.001, one-way ANOVA, n = 3. (PDF) Click here for additional data file.

[3] = molecular target: T3, N-acylsphingosine amidohydrolase (ASAH) (Homo sapiens, UniProt Q13510); assay: ASAH activity assay (Figure S1); type: biochemical; conditions: 100 µM (Figure S1)
T3 sequence (Q13510 22-395): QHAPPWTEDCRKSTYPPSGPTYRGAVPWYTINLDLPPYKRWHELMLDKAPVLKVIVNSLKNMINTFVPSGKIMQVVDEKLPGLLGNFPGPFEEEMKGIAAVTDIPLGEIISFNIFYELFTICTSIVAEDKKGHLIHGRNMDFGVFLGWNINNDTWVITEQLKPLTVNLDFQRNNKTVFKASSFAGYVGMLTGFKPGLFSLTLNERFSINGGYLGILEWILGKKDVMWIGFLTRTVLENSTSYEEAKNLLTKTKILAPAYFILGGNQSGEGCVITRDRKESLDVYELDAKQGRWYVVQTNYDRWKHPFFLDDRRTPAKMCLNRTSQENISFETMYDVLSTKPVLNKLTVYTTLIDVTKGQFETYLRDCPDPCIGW
Experimental: as §1

[4] = 24 hr
Experimental: To evaluate the biological and chemical stability of compound 16, we determined the degradation products of compound 16 in different chemical environments, as well as in rat plasma. First, chemical hydrolysis was evaluated at various pHs, i.e. pH 1.0 and pH 13.0. The hydrolytic product, biphenylpropanoic acid, if any, was detected by thin layer chromatography (TLC) after 24 hr incubation with 0.1 M HCl (pH 1.0) or […] (pH 13.0). […] Second, to test whether compound 16 was sensitive to thermal challenge, we placed compound 16 in 80°C incubator for 24 hr.

[5] = 80% rat plasma, 37°C
Experimental: In terms of the biological stability test, rat plasma was usually chosen as reference in vitro model for drug stability studies, [20], [21]. The hydrolysis of compound 16 was studied in 80% rat plasma at 37°C physiological condition.

[6] = molecular target: T4, NAAA (Rattus norvegicus, UniProt Q5KTC7); assay: NAAA activity in intact HEK293 cells overexpressing NAAA; type: cell-based; conditions: 10 µM, 8 hr
T4 sequence (Q5KTC7 34-362): T1 sequence (Q5KTC7 34-362)
Experimental: (§2) HEK293 cells overexpressing rat NAAA (HEK293-rNAAA) and rat FAAH (HEK293-rFAAH) were kind gifts from Dr. Daniele Piomelli in University of California, Irvine. The stable-overexpressing cell lines were maintained in Dulbecco’s Modified Eagle Medium (DMEM, Hyclone, Beijing, China) supplemented with 10% FBS (Gibco®, Shanghai, China) containing 0.3 mg/mL G418. Mouse macrophage cells RAW264.7 and Human Embryonic Kidney cell HEK293 cells were purchased from American Type Culture Collection (ATCC, Beijing, China) and maintained in DMEM supplemented with 10% FBS in humidified 5% CO2 atmosphere at 37°C. RAW264.7 cells were plated and cultured overnight until 80% confluence and then incubated with a series of compound 16 of different concentrations for 30 min before challenged by LPS.

[7] = system: RAW264.7 cells
Experimental: as §2
The column temperature was set at 40°C.

[8] = molecular target: T4, NAAA; assay: Dialysis NAAA assay; type: biochemical; parameters: made in house; host or cells: HEK293 cells stably overexpressing rat NAAA (HEK293-rNAAA), a gift from D. Piomelli; crude 800 x g supernatant of sonicated cells; conditions: 8 hr dialysis
Experimental: Dialysis assay was performed using Slide-A-Lyzer Dialysis Cassettes (Pierce, Shanghai, China). Briefly, 2 mg NAAA protein was incubated with compound 16 or dimethyl sulfoxide (DMSO) in 4 mL Tris-HCl buffer (50 mM, pH 5.0) for 10 minutes at 37°C. Mixed reaction solution was loaded onto a dialysis cartridge using a syringe and incubated in Tris-HCl buffer (50 mM, pH 5.0) at 4°C for 8 h. The samples were removed from Dialysis Cassettes by syringes for NAAA enzymatic assay.

O=C(CCc1ccc(-c2ccccc2)cc1)N1CCCC1 [Compound 16, 1–(2–Biphenyl–4–yl)ethyl–carbonyl pyrrolidine]
IC50 [1]: 2.12 ± 0.41 µM | inhibitory effect on MGL [2]: no inhibitory effect | inhibitory effect on ASAH [3]: no inhibitory effect | stability, 0.1M HCl ([4]; 0.1 M HCl (pH 1.0)): 100% | hydrolytic product on TLC, acidic medium ([4]; 0.1 M HCl (pH 1.0), TLC EtOAc/PE 1:2): no detectable biphenylpropanoic acid | hydrolytic product on TLC, basic medium ([4]; 0.1 M NaCl (pH 13.0) as printed, TLC EtOAc/PE 1:2): no detectable biphenylpropanoic acid | stability, 80°C ([4]; 80°C incubator): 100% | degradation products on TLC after thermal challenge ([4]; 80°C, TLC EtOAc/PE 1:2): no trace of biphenylpropanoic acid or other corresponding residuals | stability, 0.1NaOH ([4]; basic medium (pH 13.0)): 100% | compound remaining, Rat Serum 8h [5]: 89% | compound remaining, Rat Serum 8h ([5]; listed as compound 16): 89% | compound remaining, Rat Serum 16h [5]: 64% | compound remaining, Rat Serum 16h ([5]; listed as compound 16): 64% | inhibition on NAAA activity in intact cells [6]: more than 60% | cellular PEA levels, LPS+compound ([7]; RAW264.7, 0.5 µg/mL LPS, LPS alone 0.67±0.12): 1.41±0.17 pmol/mg protein | cellular PEA levels, compound alone ([7]; RAW264.7, no LPS, vehicle 1.23±0.07): 1.30±0.23 pmol/mg protein | NAAA activity after dialysis of inhibitor-NAAA complex [8]: almost completely restored the NAAA activity
